Data as given in ChEMBL document CHEMBL1201862, “PubChem BioAssay data set” (2004).
Activity calls are given as the source filed them.

Tests used:
[1] = biological target: Type-1 angiotensin II receptor (Homo sapiens, UniProt P30556); test: antagonism of angiotensin II type 1 receptor – cell-based, uHTS hits, selectivity assay for APJ receptor antagonist project, dose response (AID 463214); format: functional;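 note: antagonist potency against angiotensin II stimulated AT1 response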
Beta-galactosidase = Beta-galactosidase (Escherichia coli, UniProt Q8VNN2); test: PubChem AID 485352; format: functional
[2] = biological target: T1, Zinc finger protein mex-5 (Caenorhabditis elegans, UniProt Q9XUB2); test: potency of MEX-5 RNA-binding blockers – biochemical, C. elegans, fluorescence polarization, dose response (AID 1960)
T1 sequence (Q9XUB2 whole entry): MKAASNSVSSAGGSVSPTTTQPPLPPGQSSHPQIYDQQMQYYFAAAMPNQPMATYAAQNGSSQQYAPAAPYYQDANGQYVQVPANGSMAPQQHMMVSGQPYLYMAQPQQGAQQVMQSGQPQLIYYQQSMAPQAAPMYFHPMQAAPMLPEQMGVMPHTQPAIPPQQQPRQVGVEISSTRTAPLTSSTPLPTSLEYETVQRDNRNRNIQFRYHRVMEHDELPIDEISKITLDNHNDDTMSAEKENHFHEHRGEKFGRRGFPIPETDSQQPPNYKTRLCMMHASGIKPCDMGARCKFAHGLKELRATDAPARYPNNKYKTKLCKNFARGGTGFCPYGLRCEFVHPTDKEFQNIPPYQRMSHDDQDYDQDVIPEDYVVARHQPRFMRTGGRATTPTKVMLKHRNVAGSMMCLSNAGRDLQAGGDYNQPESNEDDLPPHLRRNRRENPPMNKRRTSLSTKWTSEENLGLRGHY

[3] = biological target: T2, Histone-lysine N-methyltransferase NSD2 (Homo sapiens, UniProt O96028); format: biochemical
T2 sequence (O96028 whole entry): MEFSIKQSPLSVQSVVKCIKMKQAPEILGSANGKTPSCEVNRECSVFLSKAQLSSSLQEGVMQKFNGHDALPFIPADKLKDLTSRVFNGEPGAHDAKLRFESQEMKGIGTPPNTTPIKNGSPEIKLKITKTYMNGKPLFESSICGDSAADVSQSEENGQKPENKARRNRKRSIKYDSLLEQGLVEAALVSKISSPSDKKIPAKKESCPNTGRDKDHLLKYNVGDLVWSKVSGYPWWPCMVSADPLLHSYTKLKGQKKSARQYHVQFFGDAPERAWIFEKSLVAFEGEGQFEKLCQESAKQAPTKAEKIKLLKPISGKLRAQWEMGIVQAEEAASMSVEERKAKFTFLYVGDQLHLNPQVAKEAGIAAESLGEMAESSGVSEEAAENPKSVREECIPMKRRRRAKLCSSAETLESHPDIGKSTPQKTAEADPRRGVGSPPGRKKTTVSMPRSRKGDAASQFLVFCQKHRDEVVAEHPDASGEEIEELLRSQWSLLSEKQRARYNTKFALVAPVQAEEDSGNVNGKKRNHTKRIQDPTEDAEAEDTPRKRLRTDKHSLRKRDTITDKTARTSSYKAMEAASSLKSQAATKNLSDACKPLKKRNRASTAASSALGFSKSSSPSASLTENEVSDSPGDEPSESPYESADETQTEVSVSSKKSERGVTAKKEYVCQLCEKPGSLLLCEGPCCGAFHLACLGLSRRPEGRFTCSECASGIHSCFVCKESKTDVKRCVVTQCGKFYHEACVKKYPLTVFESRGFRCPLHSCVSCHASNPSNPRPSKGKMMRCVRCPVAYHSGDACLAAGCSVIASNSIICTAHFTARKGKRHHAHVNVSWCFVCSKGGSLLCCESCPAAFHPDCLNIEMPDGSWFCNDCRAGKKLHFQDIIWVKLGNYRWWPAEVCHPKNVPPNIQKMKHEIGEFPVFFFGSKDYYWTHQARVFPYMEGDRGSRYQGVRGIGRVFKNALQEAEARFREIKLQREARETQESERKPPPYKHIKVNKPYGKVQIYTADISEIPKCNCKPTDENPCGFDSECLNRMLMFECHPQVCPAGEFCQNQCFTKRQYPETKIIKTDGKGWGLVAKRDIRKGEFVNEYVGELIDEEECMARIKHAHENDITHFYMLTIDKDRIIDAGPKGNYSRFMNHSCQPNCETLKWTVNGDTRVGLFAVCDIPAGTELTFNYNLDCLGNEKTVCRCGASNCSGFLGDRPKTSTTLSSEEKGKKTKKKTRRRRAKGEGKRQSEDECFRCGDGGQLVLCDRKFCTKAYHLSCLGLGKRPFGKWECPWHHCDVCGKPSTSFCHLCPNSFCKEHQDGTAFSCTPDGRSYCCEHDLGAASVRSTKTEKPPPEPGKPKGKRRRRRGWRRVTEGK

[4] = biological target: T3, RNA-binding protein pos-1 (Caenorhabditis elegans, UniProt G5EF15); test: disruptors of C. elegans POS-1 RNA interaction – biochemical, fluorescence polarization, dose response (AID 1964);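 note: purified POS-1 fused to maltose binding protein made in E. coli; potency of compounds blocking POS-1 binding to fluorescent RNA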
T3 sequence (G5EF15 whole entry): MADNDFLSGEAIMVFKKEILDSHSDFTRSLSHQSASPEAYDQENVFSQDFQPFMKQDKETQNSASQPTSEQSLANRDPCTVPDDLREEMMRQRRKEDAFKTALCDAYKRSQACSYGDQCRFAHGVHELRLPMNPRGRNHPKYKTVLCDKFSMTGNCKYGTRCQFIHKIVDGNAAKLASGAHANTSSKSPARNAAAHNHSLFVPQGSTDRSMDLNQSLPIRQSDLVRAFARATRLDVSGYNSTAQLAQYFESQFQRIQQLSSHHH

Salmon testes DNA = test: acridine orange-DNA binding displacement – biochemical, fluorescence polarization, cherry-picked samples, set 2, artefact control for KSHV LANA DNA-binding inhibitor project, dose response (AID 504727); design: species or system Salmonidae
HeLa = test: viability loss in HeLa cells – cell-based, 24 h, cherry-picked samples, cytotoxicity control, dose response (AID 504726); format: functional; settings: Homo sapiens;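 note: potency for cytotoxicity as loss of luminescence signal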
Keap1/Nrf2 = Keap1/Nrf2 (Homo sapiens, UniProt Q14145); test: disruptors of Keap1 binding to Nrf2 peptide – biochemical, fluorescence polarization, cherry-picked samples, dose response (AID 588683)
Large T antigen = Large T antigen (Simian virus 40, UniProt P03070); format: functional, Betapolyomavirus macacae;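 note: Confirmatory-stage PubChem screen for compounds that inhibit SV40 T antigen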
ORF 73 = biological target: T4, ORF 73 (Human herpesvirus 8, UniProt O40947); test: KSHV LANA DNA-binding disruption – biochemical, fluorescence polarization, cherry-picked samples, dose response (AID 504725); design: species or system Human gammaherpesvirus 8;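 note: fluorescence polarization of a labeled DNA duplex reporting LANA DNA binding; potency is for inhibitors that block LANA binding to the DNA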
T4 sequence (O40947 whole entry): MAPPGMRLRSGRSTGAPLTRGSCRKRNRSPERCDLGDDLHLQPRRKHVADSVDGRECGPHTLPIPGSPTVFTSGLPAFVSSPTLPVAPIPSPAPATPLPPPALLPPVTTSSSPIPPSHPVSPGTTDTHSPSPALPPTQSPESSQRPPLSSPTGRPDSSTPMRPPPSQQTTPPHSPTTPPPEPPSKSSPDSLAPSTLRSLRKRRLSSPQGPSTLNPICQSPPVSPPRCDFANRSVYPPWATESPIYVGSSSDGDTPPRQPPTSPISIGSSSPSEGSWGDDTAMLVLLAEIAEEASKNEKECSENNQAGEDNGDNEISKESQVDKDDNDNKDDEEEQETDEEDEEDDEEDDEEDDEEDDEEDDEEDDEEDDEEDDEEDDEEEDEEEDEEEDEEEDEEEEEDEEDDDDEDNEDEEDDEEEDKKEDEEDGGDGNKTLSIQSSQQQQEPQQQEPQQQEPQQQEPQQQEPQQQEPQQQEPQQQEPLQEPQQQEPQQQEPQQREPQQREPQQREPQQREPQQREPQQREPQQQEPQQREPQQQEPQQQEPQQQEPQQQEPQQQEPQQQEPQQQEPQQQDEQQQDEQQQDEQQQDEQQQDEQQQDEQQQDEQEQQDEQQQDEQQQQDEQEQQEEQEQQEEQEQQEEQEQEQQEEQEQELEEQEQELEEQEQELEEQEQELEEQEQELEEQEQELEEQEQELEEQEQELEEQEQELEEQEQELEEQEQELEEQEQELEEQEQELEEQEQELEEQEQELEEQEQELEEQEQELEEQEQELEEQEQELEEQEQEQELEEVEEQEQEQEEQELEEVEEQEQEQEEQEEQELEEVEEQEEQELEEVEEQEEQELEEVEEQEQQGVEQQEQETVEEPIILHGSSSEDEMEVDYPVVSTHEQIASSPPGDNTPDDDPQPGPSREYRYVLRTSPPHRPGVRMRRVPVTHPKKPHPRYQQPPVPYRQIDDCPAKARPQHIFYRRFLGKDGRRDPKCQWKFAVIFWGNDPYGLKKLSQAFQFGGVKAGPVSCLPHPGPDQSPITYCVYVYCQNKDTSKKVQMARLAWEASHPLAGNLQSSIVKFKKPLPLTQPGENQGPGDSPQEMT

[5] = biological target: Dual specificity protein kinase CLK1 (Homo sapiens, UniProt P49759); test: inhibition of human CLK1 activity – biochemical, cherry-picked samples, selectivity assay for Dyrk1A inhibitor project, dose response (AID 588811)
Escherichia coli = test: microbe, parasite or virus in culture
[6] = biological target: ATP-dependent molecular chaperone HSP82 (Candida albicans (strain WO-1) (Yeast), UniProt C4YTQ8); test: steroid-induced GRE reporter decrease in yeast – S. cerevisiae, luminescence, Hsp90 inhibitor project, dose response (AID 2400); format: functional, cell-based;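 note: beta-galactosidase luminescence from glucocorticoid response element reporter as proxy for Hsp90 function; inhibitor potency where signal loss means Hsp90 inhibition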
A-375 = test: MITF: Counter assay: A375 proliferation Measured in Cell-Based System Using Plate Reader - 2084-03_Inhibitor_Dose_DryPowder_Activity. [Related pubchem assays (depositor defined):AID488944]; format: functional; settings: Homo sapiens
[7] = biological target: T5, Microphthalmia-associated transcription factor (Homo sapiens, UniProt O75030); test: reducers of TRPM1 reporter luminescence, concentration series – cell-based, SK-MEL-5, cherry-picked, set 3, MITF inhibitor project, dose response (AID 493073); format: functional;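 note: SK-MEL-5 melanoma cells with luciferase driven by the MITF target TRPM1 promoter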
T5 sequence (O75030 whole entry): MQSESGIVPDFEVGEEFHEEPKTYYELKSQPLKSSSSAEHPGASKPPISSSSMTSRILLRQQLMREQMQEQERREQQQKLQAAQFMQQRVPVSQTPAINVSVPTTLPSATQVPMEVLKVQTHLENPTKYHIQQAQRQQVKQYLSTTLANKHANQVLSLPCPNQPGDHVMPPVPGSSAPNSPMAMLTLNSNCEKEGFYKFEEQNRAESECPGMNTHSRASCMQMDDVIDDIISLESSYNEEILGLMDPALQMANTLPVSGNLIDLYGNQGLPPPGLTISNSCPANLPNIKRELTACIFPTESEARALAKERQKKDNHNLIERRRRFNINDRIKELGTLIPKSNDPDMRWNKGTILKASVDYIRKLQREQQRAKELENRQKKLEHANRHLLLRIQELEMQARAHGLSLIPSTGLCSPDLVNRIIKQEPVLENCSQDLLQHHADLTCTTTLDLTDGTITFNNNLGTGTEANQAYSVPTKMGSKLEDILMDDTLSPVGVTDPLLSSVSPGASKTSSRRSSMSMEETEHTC

[8] = fluconazole-exposed Candida albicans growth modulators – fluorescence, retest, confirmation (AID 2467); format: functional, cell-based
INS1 = test: INS-1E survival protection against cytokine death – cell-based, luminescence, retest, dose response (AID 449756); format: functional; settings: Rattus norvegicus;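 note: cell death triggered by IL-1 beta plus TNF-alpha plus IFN-gamma mixture; protective hits raise ATP signal compared with cytokine alone wells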
[9] = biological target: T6, Serine/threonine-protein phosphatase (Candida dubliniensis (strain CD36 / CBS 7987 / NCPF 3949 / NRRLY-17841) (Yeast), UniProt B9W6M3); test: blockers of CaCl2-induced CDRE-lacZ signaling – S. cerevisiae, luminescence, secondary, dose response (AID 2388); format: functional, cell-based;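 note: yeast reporter cells carrying a calcineurin-responsive lacZ construct stimulated with calcium chloride; luminescent beta-galactosidase reporter signal in whole cells rather than isolated phosphatase activity; potency for inhibition where a drop in reporter signal means calcineurin blockade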
T6 sequence (B9W6M3 whole entry): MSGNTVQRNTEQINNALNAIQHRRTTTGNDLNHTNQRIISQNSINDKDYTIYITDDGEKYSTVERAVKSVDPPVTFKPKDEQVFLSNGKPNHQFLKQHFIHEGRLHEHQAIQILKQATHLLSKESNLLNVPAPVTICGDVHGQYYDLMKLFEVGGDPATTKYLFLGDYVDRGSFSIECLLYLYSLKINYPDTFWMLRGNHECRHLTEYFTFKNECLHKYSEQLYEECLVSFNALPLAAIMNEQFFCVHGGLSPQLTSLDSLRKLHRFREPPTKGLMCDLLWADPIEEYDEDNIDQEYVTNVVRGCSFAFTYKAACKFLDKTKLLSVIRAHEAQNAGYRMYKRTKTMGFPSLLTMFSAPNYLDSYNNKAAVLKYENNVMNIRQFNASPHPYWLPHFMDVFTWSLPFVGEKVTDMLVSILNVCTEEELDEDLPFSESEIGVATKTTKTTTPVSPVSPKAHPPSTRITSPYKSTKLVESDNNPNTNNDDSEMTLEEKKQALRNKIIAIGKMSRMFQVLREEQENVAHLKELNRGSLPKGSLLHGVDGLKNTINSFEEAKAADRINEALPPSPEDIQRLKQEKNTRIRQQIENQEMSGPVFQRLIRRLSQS

[10] = NIH-3T3 fibroblast cytotoxicity, dose response, cytotoxicity control, cell-based, fluorescence, Alamar Blue, secondary assay (AID 2327); format: functional;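 note: NIH-3T3 mouse fibroblasts cultured with fluconazole at 8 µg/mL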
cells [11] = format: functional, cell-based
cells [12] = format: functional, cell-based; remark: listed apart in the source

Sequence of Keap1/Nrf2 (Q16236 whole entry): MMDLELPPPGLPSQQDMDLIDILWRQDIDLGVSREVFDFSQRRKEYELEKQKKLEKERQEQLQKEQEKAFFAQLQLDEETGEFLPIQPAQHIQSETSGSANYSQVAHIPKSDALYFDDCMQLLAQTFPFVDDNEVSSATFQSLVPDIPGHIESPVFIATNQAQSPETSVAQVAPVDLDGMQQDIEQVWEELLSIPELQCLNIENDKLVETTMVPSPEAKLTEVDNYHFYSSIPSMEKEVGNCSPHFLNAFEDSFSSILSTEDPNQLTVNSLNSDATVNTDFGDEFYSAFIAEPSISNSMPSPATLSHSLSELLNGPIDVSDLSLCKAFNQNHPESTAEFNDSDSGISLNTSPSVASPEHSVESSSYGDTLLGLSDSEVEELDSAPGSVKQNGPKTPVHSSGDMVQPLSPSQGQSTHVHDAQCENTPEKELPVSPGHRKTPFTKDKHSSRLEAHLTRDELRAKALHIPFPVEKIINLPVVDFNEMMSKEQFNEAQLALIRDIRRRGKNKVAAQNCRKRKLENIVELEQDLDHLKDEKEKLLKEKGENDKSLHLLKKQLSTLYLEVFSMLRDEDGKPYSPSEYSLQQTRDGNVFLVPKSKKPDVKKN
Sequence of Keap1/Nrf2 (Q14145 whole entry): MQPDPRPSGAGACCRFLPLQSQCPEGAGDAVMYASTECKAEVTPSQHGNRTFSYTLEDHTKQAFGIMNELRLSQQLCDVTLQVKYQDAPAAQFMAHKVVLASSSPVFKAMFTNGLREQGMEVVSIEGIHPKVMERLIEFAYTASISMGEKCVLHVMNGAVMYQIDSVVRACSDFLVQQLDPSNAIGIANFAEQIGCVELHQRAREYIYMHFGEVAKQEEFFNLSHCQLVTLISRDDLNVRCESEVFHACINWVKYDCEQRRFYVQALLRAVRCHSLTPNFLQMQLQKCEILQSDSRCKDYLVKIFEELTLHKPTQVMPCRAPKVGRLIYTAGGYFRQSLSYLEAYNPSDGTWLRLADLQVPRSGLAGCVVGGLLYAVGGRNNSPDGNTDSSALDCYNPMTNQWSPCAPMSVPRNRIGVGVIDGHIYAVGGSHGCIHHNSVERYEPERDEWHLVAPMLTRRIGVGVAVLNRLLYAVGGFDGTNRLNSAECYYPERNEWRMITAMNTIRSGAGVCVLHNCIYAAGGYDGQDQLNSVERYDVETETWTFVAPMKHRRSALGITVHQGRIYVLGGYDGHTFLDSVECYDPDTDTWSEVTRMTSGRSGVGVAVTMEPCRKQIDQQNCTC
Sequence of ATP-dependent molecular chaperone HSP82 (C4YTQ8 whole entry): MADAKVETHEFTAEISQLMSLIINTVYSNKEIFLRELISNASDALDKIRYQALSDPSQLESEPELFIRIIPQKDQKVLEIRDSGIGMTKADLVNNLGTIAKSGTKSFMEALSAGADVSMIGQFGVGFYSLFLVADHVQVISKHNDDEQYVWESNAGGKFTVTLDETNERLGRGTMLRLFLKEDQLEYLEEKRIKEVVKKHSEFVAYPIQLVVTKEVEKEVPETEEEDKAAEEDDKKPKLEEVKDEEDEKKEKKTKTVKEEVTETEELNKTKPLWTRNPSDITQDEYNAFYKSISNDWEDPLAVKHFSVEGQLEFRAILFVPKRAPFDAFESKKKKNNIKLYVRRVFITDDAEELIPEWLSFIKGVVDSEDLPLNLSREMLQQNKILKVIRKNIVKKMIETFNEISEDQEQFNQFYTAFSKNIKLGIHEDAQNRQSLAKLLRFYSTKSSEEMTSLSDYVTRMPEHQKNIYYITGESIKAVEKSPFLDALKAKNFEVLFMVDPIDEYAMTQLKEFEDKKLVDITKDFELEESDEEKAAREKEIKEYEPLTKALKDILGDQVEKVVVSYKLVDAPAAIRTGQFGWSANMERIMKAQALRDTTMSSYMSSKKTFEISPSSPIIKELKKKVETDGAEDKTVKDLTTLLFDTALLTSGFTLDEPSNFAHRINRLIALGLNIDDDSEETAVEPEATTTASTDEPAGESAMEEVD
Sequence of Dual specificity protein kinase CLK1 (P49759 whole entry): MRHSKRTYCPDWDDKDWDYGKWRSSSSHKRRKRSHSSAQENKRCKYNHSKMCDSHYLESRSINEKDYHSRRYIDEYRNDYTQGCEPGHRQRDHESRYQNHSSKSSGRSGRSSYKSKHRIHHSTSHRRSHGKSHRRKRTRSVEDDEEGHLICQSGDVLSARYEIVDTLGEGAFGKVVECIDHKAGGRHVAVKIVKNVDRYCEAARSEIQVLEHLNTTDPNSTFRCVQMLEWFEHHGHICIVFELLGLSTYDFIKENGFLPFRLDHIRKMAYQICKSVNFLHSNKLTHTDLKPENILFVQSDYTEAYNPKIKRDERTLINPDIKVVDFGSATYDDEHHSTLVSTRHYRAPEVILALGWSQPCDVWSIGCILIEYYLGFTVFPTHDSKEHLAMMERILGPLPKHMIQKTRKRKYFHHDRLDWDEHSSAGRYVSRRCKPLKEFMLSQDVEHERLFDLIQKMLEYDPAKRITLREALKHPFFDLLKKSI
Sequence of Beta-galactosidase (Q8VNN2 whole entry): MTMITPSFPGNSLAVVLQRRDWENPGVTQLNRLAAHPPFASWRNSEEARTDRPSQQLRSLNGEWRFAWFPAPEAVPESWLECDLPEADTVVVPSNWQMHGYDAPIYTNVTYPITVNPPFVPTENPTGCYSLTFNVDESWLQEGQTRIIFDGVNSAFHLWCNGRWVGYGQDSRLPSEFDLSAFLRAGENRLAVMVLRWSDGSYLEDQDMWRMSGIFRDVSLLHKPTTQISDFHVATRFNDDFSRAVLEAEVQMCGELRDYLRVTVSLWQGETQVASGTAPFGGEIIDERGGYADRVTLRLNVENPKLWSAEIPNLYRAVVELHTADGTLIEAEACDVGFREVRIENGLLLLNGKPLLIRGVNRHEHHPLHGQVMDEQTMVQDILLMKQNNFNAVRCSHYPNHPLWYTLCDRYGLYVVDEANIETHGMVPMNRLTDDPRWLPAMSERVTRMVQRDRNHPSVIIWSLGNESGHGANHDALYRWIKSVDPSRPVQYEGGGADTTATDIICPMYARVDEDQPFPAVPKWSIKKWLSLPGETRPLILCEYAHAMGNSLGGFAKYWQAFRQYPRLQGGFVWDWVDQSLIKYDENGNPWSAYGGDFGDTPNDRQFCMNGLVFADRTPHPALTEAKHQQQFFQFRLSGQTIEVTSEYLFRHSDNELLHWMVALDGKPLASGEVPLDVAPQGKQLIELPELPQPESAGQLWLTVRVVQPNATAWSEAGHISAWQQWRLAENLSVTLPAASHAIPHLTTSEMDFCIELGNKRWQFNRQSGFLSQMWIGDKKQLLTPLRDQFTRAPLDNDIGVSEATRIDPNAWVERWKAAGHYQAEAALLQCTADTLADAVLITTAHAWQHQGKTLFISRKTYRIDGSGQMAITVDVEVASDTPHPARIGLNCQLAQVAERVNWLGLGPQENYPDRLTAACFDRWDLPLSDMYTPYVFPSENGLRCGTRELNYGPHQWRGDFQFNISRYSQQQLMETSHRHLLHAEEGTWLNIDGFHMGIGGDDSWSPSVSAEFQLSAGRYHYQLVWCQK
Sequence of Large T antigen (P03070 whole entry): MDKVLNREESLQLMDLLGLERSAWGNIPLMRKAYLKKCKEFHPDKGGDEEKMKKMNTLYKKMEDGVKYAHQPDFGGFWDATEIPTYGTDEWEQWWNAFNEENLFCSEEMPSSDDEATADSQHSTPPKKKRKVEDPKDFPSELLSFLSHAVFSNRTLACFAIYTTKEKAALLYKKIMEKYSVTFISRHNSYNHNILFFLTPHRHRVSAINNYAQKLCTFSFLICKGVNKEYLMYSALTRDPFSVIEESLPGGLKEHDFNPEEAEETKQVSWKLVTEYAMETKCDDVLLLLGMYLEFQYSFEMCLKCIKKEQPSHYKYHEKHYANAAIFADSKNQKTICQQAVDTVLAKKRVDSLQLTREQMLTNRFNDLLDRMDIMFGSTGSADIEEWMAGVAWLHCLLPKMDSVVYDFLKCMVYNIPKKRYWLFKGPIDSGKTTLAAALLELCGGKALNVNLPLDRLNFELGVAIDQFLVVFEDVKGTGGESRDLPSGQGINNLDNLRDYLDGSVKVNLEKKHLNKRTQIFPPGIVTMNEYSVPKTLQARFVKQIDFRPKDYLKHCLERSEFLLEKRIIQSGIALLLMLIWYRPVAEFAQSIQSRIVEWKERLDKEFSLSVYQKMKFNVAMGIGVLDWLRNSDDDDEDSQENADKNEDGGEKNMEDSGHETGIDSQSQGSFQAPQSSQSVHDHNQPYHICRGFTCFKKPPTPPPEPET
Sequence of Type-1 angiotensin II receptor (P30556 whole entry): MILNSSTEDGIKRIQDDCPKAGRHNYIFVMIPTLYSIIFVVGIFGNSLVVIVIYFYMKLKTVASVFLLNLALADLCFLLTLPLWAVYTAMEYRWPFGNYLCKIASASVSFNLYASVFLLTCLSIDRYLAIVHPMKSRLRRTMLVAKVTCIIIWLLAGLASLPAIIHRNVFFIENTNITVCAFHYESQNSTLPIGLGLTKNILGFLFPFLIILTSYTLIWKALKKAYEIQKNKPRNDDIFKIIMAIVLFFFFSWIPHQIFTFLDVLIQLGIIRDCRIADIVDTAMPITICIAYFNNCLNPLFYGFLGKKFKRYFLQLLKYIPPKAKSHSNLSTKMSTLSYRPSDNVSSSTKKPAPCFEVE

## O=C(OCC(=O)c1ccc(Cl)cc1Cl)c1ccc2c(c1)C(=O)N(c1cccc3ncccc13)C2=O
[1]
  IC50: 39.4 µM (not active)
Beta-galactosidase
  EC50: > 40 µM (inactive)

## O=C(O)CCNc1ccc(NCCC(=O)O)c2c1C(=O)c1ccccc1C2=O
[2]
  EC50: 15.3 µM (inconclusive)
[3]
  AC50: 11.2 µM (active)
[4]
  EC50: 12.9 µM (active)
Salmon testes DNA
  AC50: 37.8 µM (active)
HeLa
  AC50: 35 µM (active)
Keap1/Nrf2
  AC50: > 52 µM (inactive)
Large T antigen
  IC50: 26.7 µM (active)
ORF 73
  AC50: 22.8 µM (active)

## FC(F)(F)c1cccc(Nc2nccc(-c3ccc4c(c3)OCO4)n2)c1
[5]
  AC50: 15.7 µM (active)

## CCc1nc2nc(C)c(NS(=O)(=O)c3ccc(Cl)s3)c(O)n2n1
Escherichia coli
  AC50: 65.8 µM (active)

## CCN(CC)c1ccc(/C=N/NC(=O)c2cccc(S(=O)(=O)N3CCOCC3)c2)c(O)c1
[6]
  EC50: > 160 µM (inactive)
A-375
  AC50: 47.2 µM (active)
[7]
  AC50: 1.52 µM (active)
[8]
  EC50: 0.769 µM (active)
INS1
  AC50: 0.358 µM (active)
[9]
  EC50: > 180 µM (inactive)
[10]
  EC50: 12.5 µM (inconclusive)
Cells [11]
  EC50: 28.5 µM (active)
Cells [12]
  EC50: 2.85 µM (active)
